The values below come from patent US20030162803A1, “Anhydrovinblastine for the treatment of cancer” (priority 1997, published 2003).

The structures appear in SMILES notation. Structures can show the parent of a compound that is named as a salt.

Data set [1] concerns advanced refractory solid tumors. Nature of the data set: Phase I clinical trial, disease response. The class given is in vivo, human patients. The protocol: Patients had normal bone marrow, hepatic and renal function. Twenty-four patients were treated with escalating doses of AHVB, administered as a 1 hour infusion every 3 weeks. The 24 patients comprised 12 male and 12 female patients with a median age of 60 years (range 27-75 years). Twenty-one of the 24 patients were evaluable. Diagnoses were non-small cell lung cancer (NSCLC), colorectal cancer, soft tissue sarcoma, pancreatic cancer, breast cancer and metastatic neuroendocrine cancer in 11, 5, 4, 1, 1, and 1 patient(s), respectively. […] A total of 51 courses were administered at doses of 2.5, 5, 10,16.5, 21,25 and 30 mg/m^2 to 1,3, 1,3, 6, 6 and 1 patient(s), respectively (see Table 4).

For data set [2], the system named is nerves. The note with it: vs vinblastine, vindesine; cited from earlier work.

With `CCC1=C[C@H]2CN(CCc3c([nH]c4ccccc34)[C@@](C(=O)OC)(c3cc4c(cc3OC)N(C)[C@H]3[C@@](O)(C(=O)OC)[C@H](OC(C)=O)[C@]5(CC)C=CCN6CC[C@]43[C@@H]65)C2)C1` [AHVB, 3′,4′-anhydrovinblastine], the stable disease result is “three patients” in data set [1] (metastatic NSCLC, 21 and 25 mg/m^2); “one patient” in data set [1] (metastatic sarcoma to lungs, 10 mg/M^2).

`CC[C@]1(O)C[C@H]2CN(CCc3c([nH]c4ccccc34)[C@@](C(=O)OC)(c3cc4c(cc3OC)N(C=O)[C@H]3[C@@](O)(C(=O)OC)[C@H](OC(C)=O)[C@]5(CC)C=CCN6CC[C@]43[C@@H]65)C2)C1` [Vincristine, Sulfate of 22-oxovincaleukoblastine]: in data set [2], the “uptake into nerves, times faster than the other drugs” value is given as 4 times.
